Tested on: Citrobacter rodentium
Experiment: Functionality assay (antimicrobial activity, killing of bacteria)
Assay type: cell-based
Procedure: One skilled in the art will appreciate that similar methods can be used to confirm the functionality of any AMP of interest, such as a defensin. The OD600 of a Citrobacter rodentium overnight culture was measured and a dilution series was performed. 100 μl of a 7.1×10^2 bacteria/ml dilution was used in the functionality assay. […] For LL37, the positive control had 20 μM pure synthetic LL37 (Microchem Facility, Emory) added, and LL37 peptide obtained in Example 2 was added at 8.5 μg (250 μl) or 17 μg (500 μl) (FIG. 3). 20 μM concentration of the synthetic peptides equals 8.8 μg added.

[1] = CRAMP peptide of Example 2 at 30 μM or 53 μM, positive control 50 μM CRAMP (Sigma Genosys), FIG. 2

| Substance | efficiency in killing Citrobacter rodentium compared with commercially available peptide [1] | efficiency in killing Citrobacter rodentium compared with commercially available peptide (LL37 peptide of Example 2 at 8.5 μg (250 μl) or 17 μg (500 μl), positive control 20 μM synthetic LL37, FIG. 3) |
| --- | --- | --- |
| CRAMP-FLAG-tag: CRAMP with C-terminal FLAG tag, released by sumoase from His tag-SUMO-CRAMP-FLAG-tag (HMGLLRKGGEKIGEKLKKIGQKIKNFFQKLVPQPEQDYKDDDDKG; C-terminal FLAG tag; Resulting peptide when SEQ ID NO 45 treated with sumoase) | decrease in efficacy | – |
| CRAMP: mouse cathelicidin-related antimicrobial peptide, active last 34 aa, released by sumoase from recombinant His tag-SUMO-CRAMP (HMGLLRKGGEKIGEKLKKIGQKIKNFFQKLVPQPEQ; resulting protein when SEQ ID NO 47 treated with sumoase) | almost as efficient in killing Citrobacter rodentium as the commercially available peptide | – |
| LL37: human cathelicidin LL37 plus N-terminal His and Met, released by sumoase from His tag-SUMO-LL37 (HMLLGDFFRKSKEKIGKEFKRIVQRIKDFLRNLVPRTES; resulting peptide when SEQ ID NO 40 treated with sumoase.) | – | almost as efficient in killing Citrobacter rodentium as the commercially available peptide |
